For test [1], the target named is GABAB (Rattus norvegicus, UniProt Q9Z0U4). The experiment in a line: Receptor binding GABAB. Conditions: read-out: Ki(nM) Compound 1. How it is done: (§1) Receptor binding data were obtained by CEREP (128, rue Danton, 92500 Rueil-Malmaison, France) or at Solvay Pharmaceuticals B.V., using well documented standard procedures. Affinity for 5-HT1A receptors for instance, was determined by testing the ability of the compounds of the invention to displace [^3H]-2-(di-n-propylamino)-8-hydroxytetralin ([^3H]-8-OH-DPAT) from its specific binding sites in rat frontal cortex homogenates. This test is based on the method described by Gozlan et al. (Nature, 305, (1983), pages 140-142).
(§2) The binding data collected in the table below were either obtained by CEREP (128, rue Danton, 92500 Rueil-Malmaison, France) or at Solvay Pharmaceuticals B.V., using well documented standard procedures.

Test [2] has as its target PACAP (Rattus norvegicus, UniProt P32215). The experiment in a line: Receptor binding PACAP. The note with it: radioligand [125I]-PACAP 1-27, read-out: Ki(nM) Compound 1. How it is done:
as §1, §2

Test [3] addresses cannabinoid-CB1 (Homo sapiens, UniProt P21554). The experiment in a line: Receptor binding cannabinoid-CB1. Conditions: radioligand [3H]-WIN 55,212-2, read-out: Ki(nM) Compound 1. How it is done:
as §1, §2

Test [4] concerns the target β1-adrenergic (Homo sapiens, UniProt P08588). The experiment in a line: Receptor binding β1-adrenergic. Conditions: radioligand [3H]-CGP 12177, read-out: Ki(nM) Compound 1. How it is done:
as §1, §2

The target in test [5] is Neurotensin-NT1 (Homo sapiens, UniProt P30989). The experiment in a line: Receptor binding Neurotensin-NT1. Conditions: radioligand [125I]-neurotensin, read-out: Ki(nM) Compound 1. The method, then:
as §1, §2

For test [6], the target named is Adenosine-A1 (Homo sapiens, UniProt P30542). The experiment in a line: Receptor binding Adenosine-A1. Conditions: radioligand [3H]-DPCPX, read-out: Ki(nM) Compound 1. How it is done: as §1, §2
Adenosine-A1, sequence (P30542 whole entry): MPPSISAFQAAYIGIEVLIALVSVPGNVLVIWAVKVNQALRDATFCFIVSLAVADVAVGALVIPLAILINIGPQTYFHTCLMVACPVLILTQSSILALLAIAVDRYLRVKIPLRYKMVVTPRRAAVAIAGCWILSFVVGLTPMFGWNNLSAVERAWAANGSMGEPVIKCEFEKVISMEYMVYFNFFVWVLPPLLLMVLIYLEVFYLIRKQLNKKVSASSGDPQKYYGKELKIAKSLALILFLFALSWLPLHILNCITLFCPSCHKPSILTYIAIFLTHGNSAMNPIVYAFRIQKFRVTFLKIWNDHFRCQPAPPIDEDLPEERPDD
In test [7] the target is 5-HTreuptake (Homo sapiens, UniProt P31645). The experiment in a line: Binding 5-HT reuptake. Conditions: radioligand [3H]-paroxetine, read-out: Ki(nM) Compound 1. How it is done: as §1, §2
Test [8] addresses β2-adrenergic (Homo sapiens, UniProt P07550). The experiment in a line: Receptor binding β2-adrenergic. The note with it: radioligand [3H]-CGP 12177, read-out: Ki(nM) Compound 1. How it is done: as §1, §2
Test [9] deals with rats with unilateral 6-OHDA lesions. The experiment in a line: Turning experiments in animals with unilateral 6-hydroxydopamine lesions of the substantia nigra compacta. Format: in vivo. How it is done:
Male rats (Wistar, Harlan, Netherlands; 400-500 g at time of experiment) are housed in a temperature (20-21±2° C.) and humidity controlled environment and receive water ad libitum except during experimental sessions. Food is restricted to approximately 15 g per rat per day. A 12-hour light-dark cycle (lights on 07.00-19.00 hour) is used.
Unilateral 6-hydroxydopamine (6-OH DA) lesions of the substantia nigra zona compacta are performed using a stereotaxic procedure. One hour prior to surgery, desmethyl-imipramine (20 mg/kg, i.p.) is administered to protect noradrenergic neurons. Rats are anaesthetized with a 3% halothane+0.8 l/min N2O+0.8 l/min O2-gas mixture at 1013 mbar. During surgery the gas mixture is adjusted to 1.75-2% halothane, 0.6 l/min N2O and 0.6 l/min O2. The incisor bar of the stereotaxic instrument (Kopf, Calif., USA) iss set at −3.3 mm, a burr hole was drilled over the substantia nigra pars compacta and 3 μl of a 6-OHDA solution (3.33 mg/ml) is injected (flow rate=0.75 μl/min; the needle is left in place for 4 minutes prior to withdrawal). Coordinates for this procedure are: anterior posterior +3.2 mm from the interaural line; medial/lateral +1.8 mm from the midline and ventral −8.2 from the skull surface. Animals are allowed to recover for approximately 2 weeks prior to testing. Good turning rats are defined as those which elicited at least 20 contralateral turns following amphetamine (2.5 mg/kg sc) in the 5 min time epoch beginning 25 min after administration and a mean of at least 20 contralateral turns recorded over a 30 min period after administration of apomorphine (0.25 mg/kg s.c.). Regular testing with apomorphine (0.1 or 0.25 mg/kg s.c.) is carried out to ensure the reliability of the animals in this procedure.
Eight commercially available (TSE systems Bad Homburg, Germany) ‘rotameter’ units (transparent plastic bowls; 57×55×52 cm) are used for testing. The rats are harnessed and tethered to a rotation sensor interfaced to an IBM compatible personal computer (using the TSE Rotameter Software v. 1.11, TSE systems Bad Homburg, Germany) which registers clockwise or counterclockwise movement. An internal software rotation filter of 10 is used.
Following statistical randomization of the treatment groups rats are pretreated with compounds of the invention (0.1-3 mg/kg p.o.) or vehicle (2 ml/kg) and placed in the rotameters the contralateral rotational behaviour is then measured. In further studies the effects of L-DOPA (1-10 mg/kg p.o.) are assessed on contralateral rotations. The peripheral decarboxylase inhibitor benserazide (30 mg/kg i.p.) can be used. In combination studies a range of L-DOPA (1-10) doses and doses of compounds of the invention (0.1-3 mg/kg p.o.) can be combined.

Test [10] has as its target Neurokinin-NK1 (Homo sapiens, UniProt P25103). The experiment in a line: Receptor binding Neurokinin-NK1. Conditions: radioligand [3H]-substance P, read-out: Ki(nM) Compound 1. How it is done:
as §1, §2

Test [11] concerns the target sigma-SG1 (Cavia porcellus, UniProt Q60492). The experiment in a line: Receptor binding sigma-SG1. The note with it: radioligand [3H]-pentazocone; guinea pig; read-out: Ki(nM) Compound 1. The method, then: as §1, §2
In test [12] the target is Neurokinin-NK2 (Homo sapiens, UniProt P21452). The experiment in a line: Receptor binding Neurokinin-NK2. Conditions: radioligand [125I]-neurokininA, read-out: Ki(nM) Compound 1. How it is done: as §1, §2
Neurokinin-NK2, sequence (P21452 whole entry): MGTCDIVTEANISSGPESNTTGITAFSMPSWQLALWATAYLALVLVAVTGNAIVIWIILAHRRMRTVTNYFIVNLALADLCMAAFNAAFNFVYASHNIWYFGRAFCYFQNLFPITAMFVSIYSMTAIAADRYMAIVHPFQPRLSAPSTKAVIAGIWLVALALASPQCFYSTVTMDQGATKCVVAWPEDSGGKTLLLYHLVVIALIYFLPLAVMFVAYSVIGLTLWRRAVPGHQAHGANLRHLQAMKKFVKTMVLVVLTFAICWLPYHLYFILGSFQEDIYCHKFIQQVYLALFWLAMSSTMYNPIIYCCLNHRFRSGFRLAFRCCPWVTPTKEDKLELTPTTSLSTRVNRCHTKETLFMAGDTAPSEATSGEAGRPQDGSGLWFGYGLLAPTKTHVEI
Test [13] has as its target nociceptin (ORL1) (Homo sapiens, UniProt P41146). The experiment in a line: Receptor binding nociceptin (ORL1). The note with it: radioligand [3H]-nociceptine, read-out: Ki(nM) Compound 1. The method, then: as §1, §2
Test [14] deals with Neurokinin-NK3 (Homo sapiens, UniProt P29371). The experiment in a line: Receptor binding Neurokinin-NK3. Conditions: radioligand [3H]-SR 142801, read-out: Ki(nM) Compound 1. The method, then: as §1, §2
Neurokinin-NK3, sequence (P29371 whole entry): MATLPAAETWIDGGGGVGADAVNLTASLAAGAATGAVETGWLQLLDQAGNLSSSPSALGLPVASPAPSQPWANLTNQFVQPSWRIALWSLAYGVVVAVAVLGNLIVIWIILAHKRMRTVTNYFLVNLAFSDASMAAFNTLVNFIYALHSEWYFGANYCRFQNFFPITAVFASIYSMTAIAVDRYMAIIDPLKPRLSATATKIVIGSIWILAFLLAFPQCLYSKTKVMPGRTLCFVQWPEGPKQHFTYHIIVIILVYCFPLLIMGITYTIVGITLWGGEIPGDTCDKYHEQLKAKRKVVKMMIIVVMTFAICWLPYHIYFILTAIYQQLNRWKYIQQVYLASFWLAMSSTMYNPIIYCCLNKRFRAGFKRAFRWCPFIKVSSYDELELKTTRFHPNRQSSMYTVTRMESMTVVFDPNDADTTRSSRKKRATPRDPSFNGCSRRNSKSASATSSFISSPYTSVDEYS

From patent publication US20050215551A1, “1-[2H-1-benzopyran-2-one-8-yl]- piperazine derivatives for the treatment of movement disorders” (SOLVAY PHARMACEUTICALS B.V., priority 2004, published 2005) come the findings set out here.

Marks after values point to notes of the source that are not given here.

cannabinoid-CB1, sequence (P21554 whole entry): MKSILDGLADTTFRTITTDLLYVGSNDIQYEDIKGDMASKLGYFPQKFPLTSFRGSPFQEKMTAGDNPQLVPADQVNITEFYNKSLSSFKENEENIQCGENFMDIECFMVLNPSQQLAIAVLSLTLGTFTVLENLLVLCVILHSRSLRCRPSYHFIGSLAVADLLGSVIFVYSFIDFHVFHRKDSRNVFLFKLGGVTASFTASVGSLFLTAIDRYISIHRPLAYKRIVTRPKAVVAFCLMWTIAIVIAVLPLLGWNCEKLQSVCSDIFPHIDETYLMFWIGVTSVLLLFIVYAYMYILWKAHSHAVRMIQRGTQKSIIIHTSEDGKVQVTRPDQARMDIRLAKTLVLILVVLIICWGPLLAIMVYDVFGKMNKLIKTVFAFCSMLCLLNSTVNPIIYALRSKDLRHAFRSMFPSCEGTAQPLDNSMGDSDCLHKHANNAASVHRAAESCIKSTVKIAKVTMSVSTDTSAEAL
PACAP, sequence (P32215 20-523): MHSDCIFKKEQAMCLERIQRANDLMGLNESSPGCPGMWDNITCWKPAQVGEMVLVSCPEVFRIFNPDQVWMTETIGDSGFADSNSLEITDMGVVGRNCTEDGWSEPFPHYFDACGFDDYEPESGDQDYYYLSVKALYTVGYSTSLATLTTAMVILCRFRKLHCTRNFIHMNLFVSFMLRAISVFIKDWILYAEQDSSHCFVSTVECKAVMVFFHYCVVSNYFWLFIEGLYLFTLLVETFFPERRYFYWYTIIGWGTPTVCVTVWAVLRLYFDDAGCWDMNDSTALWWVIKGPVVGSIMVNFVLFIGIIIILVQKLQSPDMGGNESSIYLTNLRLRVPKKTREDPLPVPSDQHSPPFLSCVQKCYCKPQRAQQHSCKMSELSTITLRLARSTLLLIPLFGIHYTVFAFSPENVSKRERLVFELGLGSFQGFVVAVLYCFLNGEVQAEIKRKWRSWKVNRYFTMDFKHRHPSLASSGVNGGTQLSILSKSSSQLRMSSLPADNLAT
Neurokinin-NK1, sequence (P25103 whole entry): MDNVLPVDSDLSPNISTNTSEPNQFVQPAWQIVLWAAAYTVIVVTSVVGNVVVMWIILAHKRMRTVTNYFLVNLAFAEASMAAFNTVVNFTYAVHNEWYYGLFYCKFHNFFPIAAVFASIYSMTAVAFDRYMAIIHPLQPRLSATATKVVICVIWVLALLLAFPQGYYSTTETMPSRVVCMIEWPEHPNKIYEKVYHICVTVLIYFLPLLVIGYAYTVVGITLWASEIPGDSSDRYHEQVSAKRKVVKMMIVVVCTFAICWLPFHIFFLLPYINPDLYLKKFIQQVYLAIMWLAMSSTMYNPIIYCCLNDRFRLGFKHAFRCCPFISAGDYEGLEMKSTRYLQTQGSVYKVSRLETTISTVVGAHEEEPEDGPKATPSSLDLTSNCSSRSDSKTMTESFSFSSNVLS
β1-adrenergic, sequence (P08588 whole entry): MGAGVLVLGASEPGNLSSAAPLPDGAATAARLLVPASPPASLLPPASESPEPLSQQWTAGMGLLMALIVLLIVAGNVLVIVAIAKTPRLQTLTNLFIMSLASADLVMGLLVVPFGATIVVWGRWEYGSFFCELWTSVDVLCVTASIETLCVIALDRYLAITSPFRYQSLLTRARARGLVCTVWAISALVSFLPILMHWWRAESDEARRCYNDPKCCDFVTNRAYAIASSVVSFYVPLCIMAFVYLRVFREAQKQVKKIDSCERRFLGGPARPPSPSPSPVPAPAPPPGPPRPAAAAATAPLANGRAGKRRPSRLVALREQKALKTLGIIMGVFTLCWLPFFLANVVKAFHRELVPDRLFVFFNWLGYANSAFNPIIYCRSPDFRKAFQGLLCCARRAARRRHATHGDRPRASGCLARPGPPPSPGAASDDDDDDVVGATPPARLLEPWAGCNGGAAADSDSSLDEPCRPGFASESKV
sigma-SG1, sequence (Q60492 whole entry): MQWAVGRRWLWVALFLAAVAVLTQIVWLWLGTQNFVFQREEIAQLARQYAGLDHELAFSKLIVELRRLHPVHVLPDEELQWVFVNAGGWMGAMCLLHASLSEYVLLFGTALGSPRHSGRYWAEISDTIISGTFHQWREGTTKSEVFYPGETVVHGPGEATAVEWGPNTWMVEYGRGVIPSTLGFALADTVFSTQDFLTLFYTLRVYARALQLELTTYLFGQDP
Neurotensin-NT1, sequence (P30989 whole entry): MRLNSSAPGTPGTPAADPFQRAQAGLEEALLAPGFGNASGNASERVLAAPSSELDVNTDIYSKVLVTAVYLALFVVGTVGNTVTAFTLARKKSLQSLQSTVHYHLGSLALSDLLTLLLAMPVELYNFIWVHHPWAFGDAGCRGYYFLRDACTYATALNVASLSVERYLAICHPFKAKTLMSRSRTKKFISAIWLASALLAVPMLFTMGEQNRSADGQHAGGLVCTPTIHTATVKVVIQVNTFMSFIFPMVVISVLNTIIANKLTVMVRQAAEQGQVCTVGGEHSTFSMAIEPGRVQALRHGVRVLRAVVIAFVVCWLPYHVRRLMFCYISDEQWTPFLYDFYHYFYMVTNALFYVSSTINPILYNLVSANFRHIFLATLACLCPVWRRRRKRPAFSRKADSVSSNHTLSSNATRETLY
nociceptin (ORL1), sequence (P41146 whole entry): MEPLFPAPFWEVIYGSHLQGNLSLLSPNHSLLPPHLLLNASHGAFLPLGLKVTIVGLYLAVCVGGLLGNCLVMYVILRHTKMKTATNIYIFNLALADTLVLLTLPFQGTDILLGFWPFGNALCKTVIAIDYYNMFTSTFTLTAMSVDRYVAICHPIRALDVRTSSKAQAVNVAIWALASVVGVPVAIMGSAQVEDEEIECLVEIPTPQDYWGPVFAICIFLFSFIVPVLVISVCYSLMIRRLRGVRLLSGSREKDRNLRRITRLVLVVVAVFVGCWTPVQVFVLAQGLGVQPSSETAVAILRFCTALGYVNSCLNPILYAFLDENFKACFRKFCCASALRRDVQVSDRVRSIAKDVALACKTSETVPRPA
β2-adrenergic, sequence (P07550 whole entry): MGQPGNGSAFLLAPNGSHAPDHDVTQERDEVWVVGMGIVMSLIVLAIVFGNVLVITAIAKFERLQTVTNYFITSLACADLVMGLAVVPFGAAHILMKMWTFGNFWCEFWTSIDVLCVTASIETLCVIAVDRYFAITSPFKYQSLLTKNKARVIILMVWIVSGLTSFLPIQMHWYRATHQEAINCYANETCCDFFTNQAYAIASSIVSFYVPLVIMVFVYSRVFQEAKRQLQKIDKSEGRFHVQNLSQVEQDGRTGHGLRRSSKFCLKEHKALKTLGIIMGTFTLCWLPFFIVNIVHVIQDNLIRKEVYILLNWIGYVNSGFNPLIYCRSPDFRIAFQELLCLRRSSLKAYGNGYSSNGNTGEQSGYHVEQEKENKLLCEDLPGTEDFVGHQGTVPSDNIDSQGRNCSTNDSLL

The Ki is the equilibrium dissociation constant of an inhibitor or competing ligand from its target. On to `Nc1cc2cccc(N3CCNCC3)c2oc1=O` [Compound 1, 3-amino-8-(1-piperazinyl)-2H-1-benzopyran-2-one], for which the Ki in [1] is more than 1000 nM; in test [2], more than 1000 nM; in test [3], more than 10000 nM; in test [4] it was 50 nM; in test [5], more than 1000 nM; in test [6], more than 1000 nM. In addition, the Ki is more than 1000 nM in test [7]; 40 nM in [8]; more than 1000 nM in [10]; more than 1000 nM in [11]; more than 1000 nM in test [12]; more than 1000 nM in [13]. Also, the Ki in test [14] was more than 1000 nM. The “Mean number of turns (rotations contralateral to the direction of a 6-OHDA lesion)” value in test [9] (0.3 mg/kg p.o.) is recorded as 20.925; in [9] (0.5 mg/kg p.o.), 22.988; in test [9] (0.75 mg/kg p.o.) it was 106.35*; in test [9] (1.0 mg/kg p.o.), 77.1*. Also, the “minimal effective dose, contralateral rotation” value in test [9] (p.o.) was 0.75 mg/kg.
